Measurements published in US20090203661A1, “Betulinic acid, derivatives and analogs thereof and uses therefor” (priority 2006, published 2009).

Experiments:
[1] = test system: SW480 cells; assay: Apoptosis (PARP cleavage, Western blot) in SW480 cells; format: cell-based, human; conditions: SW480, 24 hr
Procedure: (§1) Induction of KLF4 in HT-29 (FIG. 12A) and SW480 (FIG. 12B) cells. Cells were treated with different concentrations of CDODA isomers or T007 alone or in combination, and KLF4 mRNA levels were determined by real time PCR. […] KLF4 mRNA levels were not induced in SW480 cells by BA derivatives. FIGS. 12C-12D show induction of apoptosis. Panc28 (FIG. 12C) and SW480 (FIG. 12D) cells were treated for 24 hr with betulinic acid and related compounds and whole cell lysates were examined by Western blot analysis.
(§2) SW480, HT-29, HCT-15 and Panc-28 (3×10^5) colon cancer cells were seeded in 6-well tissue culture plates in DMEM/Ham's F-12 medium containing 2.5% charcoal-stripped FBS. Protein is extracted from the cells treated either with vehicle or indicated compounds suspended for 24 hr except for caveolin-1 protein which was done for 72 hr. Samples were extracted in high salt buffer [50 mmol/L HEPES, 500 mmol/L NaCl, 1.5 mmol/L MgCl2, 1 mmol/L EGTA, 10% glycerol, and 1% Triton X-100 (pH 7.5), and 5 μL/mL protease inhibitor cocktail (Sigma-Aldrich)]. Samples were incubated at 100° C. for 2 min, separated on either 10% or 12% SDS-PAGE gels and then transferred to polyvinylidene difluoride membrane (PVDF; Bio-Rad, Hercules, Calif.). […]

[2] = test system: Panc28 cells; assay: Apoptosis (PARP cleavage, Western blot) in Panc28 cells; format: cell-based, human; conditions: Panc28, 24 hr
Procedure: as §1, §2

[3] = test system: Panc-28 cells; assay: Cell proliferation assay, Panc-28 cells; format: cell-based; conditions: Homo sapiens, read-out: IC50 values, inhibition of growth
Procedure: SW480, HT-29 and HCT-15 human colon cancer cells were provided by Dr. Stan Hamilton (M. D. Anderson Cancer Center (Houston, Tex.). Panc-28 human pancreatic cancer cells and 3T3-L1 pre-adipocytes were obtained from American Type Culture Collection (Manassas, Va.). SW480, HT-29 and Panc-28 cells were maintained in Dulbecco's modified/Ham's F-12 (Sigma-Aldrich, St Louis, Mo.) with phenol red supplemented with 0.22% sodium bicarbonate, 0.011% sodium pyruvate, 5% fetal bovine serum, and 10 mL/L 100× antibiotic antimycotic solution (Sigma). HCT-15 cells were maintained in RPMI 1640 (Sigma) supplemented with 0.22% sodium bicarbonate, 0.011% sodium pyruvate, 0.45% glucose, 0.24% HEPES, 10% fetal bovine serum, and 10 mL/L of 100× antibiotic antimycotic solution (Sigma). Cells were maintained at 37° C. in the presence of 5% CO2.
This assay is performed in 12-well tissue culture plates at the concentration of 2×10^4 cells per well, using DMEM/Ham's F-12 media containing 2.5% charcoal stripped FBS. The cells were counted on the initial day using a Z1 cell counter (Beckman Coulter, Fullerton, Calif.) and then were treated either with vehicle (DMSO) or the indicated triterpenoid compounds, each sample in triplicate. Every 48 hr, fresh medium was added along with the indicated compounds. […] The results are expressed as means±S.E for each set of triplicate.

[4] = test system: SK-MEL2 melanoma cells; assay: Cell proliferation (cell counting), SK-MEL2 melanoma cells; format: cell-based; conditions: Homo sapiens, SK-MEL-2, 144 h; SK-MEL2, 6 days; read-out: 6-day IC50 values for growth inhibition
Procedure: (§3) Human carcinoma cell lines LNCaP (prostate) and SK-MEL2 (melanoma) were obtained from American Type Culture Collection (Manassas, Va.). Cell lines were maintained in RPMI 1640 (Sigma) supplemented with 0.22% sodium bicarbonate, 0.011% sodium pyruvate, 0.45% glucose, 0.24% HEPES, 10% FBS, and 10 mL/L of 100× Antibiotic Antimycotic solution (Sigma). Cells were maintained at 37° C. in the presence of 5% CO2.
(§4) Prostate and melanoma cancer cells (2×10^4 per well) were plated in 12-well plates and allowed to attach for 24 hr. The medium was then changed to DMEM:Ham's F-12 medium containing 2.5% charcoal-stripped FBS and either vehicle (DMSO) or different concentrations of the compound were added. […] Each experiment was done in triplicate and results are expressed as means±SE for each set of experiments.

[5] = test system: LNCaP prostate cancer cells; assay: Cell proliferation (cell counting), LNCaP prostate cancer cells; format: cell-based; conditions: Homo sapiens, 144 h, 6 days, read-out: 6-day IC50 values for growth inhibition
Procedure: as §3, §4

Structure (SMILES)	caspase-dependent PARP cleavage [1]	caspase-dependent PARP cleavage [2]	IC50 [3] [µM]	IC50 [4] [µM]	IC50 [5] [µM]
CC(C)C1CCC2(C(=O)O)CCC3(C)C(CCC4C5(C)C=C(C#N)C(=O)C(C)(C)C5CCC43C)C12 (centres unmarked) [CN-BA]	induced caspase-dependent PARP cleavage	induced caspase-dependent PARP cleavage	–	–	–
C=C(C)[C@@H]1CC[C@]2(C(=O)O)CC[C@]3(C)[C@H](CC[C@@H]4[C@@]5(C)CC[C@H](O)C(C)(C)[C@@H]5CC[C@]43C)[C@@H]12 [betulinic acid, Betulinic acid]	–	–	1 to 5	5 to 10	1 to 5
